According to patent US9321796B2, “Galactopyranosyl derivatives useful as medicaments” (Universiteit Gent, priority 2012, dated 2016):

Columns and labels:
[1] = target: T1, TCR / mCD1d-glycolipid complex (Mus musculus, UniProt P11609); experiment: Surface plasmon resonance: TCR binding to mCD1d-glycolipid complexes
T1 sequence (P11609 19-297): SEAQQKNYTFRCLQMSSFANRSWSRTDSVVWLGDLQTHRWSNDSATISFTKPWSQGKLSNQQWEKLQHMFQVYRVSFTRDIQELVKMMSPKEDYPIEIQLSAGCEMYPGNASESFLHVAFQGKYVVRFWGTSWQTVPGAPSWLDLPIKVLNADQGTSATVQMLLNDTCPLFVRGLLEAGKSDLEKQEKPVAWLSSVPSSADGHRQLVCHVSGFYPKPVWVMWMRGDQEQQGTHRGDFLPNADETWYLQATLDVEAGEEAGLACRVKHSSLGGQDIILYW
T1 sequence (P01887 21-119 partner): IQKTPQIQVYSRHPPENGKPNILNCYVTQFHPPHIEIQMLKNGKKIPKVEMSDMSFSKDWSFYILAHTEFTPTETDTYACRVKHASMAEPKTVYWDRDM
Protocol: SPR studies were conducted using a Biacore 3000 (Biacore). Glycolipids were dissolved at 1 mg/ml in DMSO and before loading were diluted to 0.25 mg/ml with vehicle solution (50 mM Tris-HCl pH 7.0, 4.8 mg/ml sucrose, 0.5 mg/ml deoxycholate and 0.022% Tween-20), heated for 20 minutes at 80° C. After cooling 1 μg of each lipid was incubated with 10 μg enzymatically biotinylated mCD1d overnight at room temperature. In one embodiment, 400-600 response units (RU) of mCD1d-glycolipid complexes were immobilized onto a CA capture chip (Biacore). A reference surface was generated in another flow channel with unloaded mCD1d immobilized at RU of 500. During the association phase, a series of increasing concentrations of TCR (in 10 mM HEPES, 150 mM NaCl, 3.0 mM EDTA, pH 7.4) in duplicate were injected for 80 seconds and the dissociation phase (running buffer only) was monitored over 45 minutes. Experiments were carried out at 25° C. with a flow rate of 30 μl/min and performed at least two to three times, each time with a different batch of TCR preparation. Kinetic parameters were calculated after subtracting the response to mCD1d molecules in the reference channel, using a simple Langmuir 1:1 model in the BIA evaluation software version 4.1. One representative sensorgram for each lipid is shown. […]

CD1d = target: T2, CD1d (Mus musculus, UniProt P11609); experiment: Buried surface area between glycolipid and CD1d in crystal structures; details: mCD1d-glycolipid-mTCR crystal structures
T2 construct: made in house
T2 sequence (P11609 19-297 limits assumed): T1 sequence (P11609 19-297)
Protocol: First, the ternary mCD1d-lipid-mTCR complexes using the glycolipids 4ClPhC-α-GalCer (3a) and PyrC-α-GalCer (3c) were prepared as described previously for NU-α-GalCer, and purified by size exclusion chromatography (SEC) using Superdex S200 10/300 GL (GE Healthcare). Both mCD1d-4ClPhC-α-GalCer-mTCR and mCD1d-PyrC-α-GalCer-mTCR complexes were concentrated to 3.5 mg/ml in SEC buffer (50 mM Hepes, pH 7.5, 150 mM NaCl). Crystals were grown at 22.3° C. by sitting drop vapor diffusion while by mixing 0.5 μl mCD1d-4ClPhC-α-GalCer-mTCR and 0.5 μl precipitate (20% PEG 4000, 0.2 M sodium thiocyanate) or by mixing 1 μl mCD1d-PyrC-α-GalCer-mTCR and […] precipitate (20% PEG 4000, 0.2 M di-ammonium hydrogen citrate), respectively.
Crystals were flash-cooled at 100° K in a mother liquor containing 30% glycerol. […]
The asymmetric unit contains one mCD1d-glycolipid-TCR molecule with estimated solvent content of 57.3% based on a Matthews' coefficient (Vm) of 2.88 A^3/Da for 4ClPhC-α-GalCer and 56.9% (VM) of 2.86 A^3/Da for PyrC-α-GalCer. Crystal structures were determined by molecular replacement using MOLREP as part of the CCP4 suite. […]

solid tumours = details: Phase I study; cited from earlier work

CCCCCCCCCCCCCCCCCCCCCCCCCC(=O)N[C@@H](CO[C@H]1O[C@H](CO)[C@H](O)[C@H](O)[C@H]1O)[C@H](O)[C@H](O)CCCCCCCCCCCCCC [α-GalCer, α-galactosyl ceramide]
Kd [1]: 11 nM | buried surface area between glycolipid and CD1d (CD1d): 1,027 Å^2 | treatment of solid tumours (solid tumours): ineffective
